Patent publication US8858962B2, “Adjuvant or pharmaceutical preparation for transdermal or transmucosal administration” (priority 2005, dated 2014)

Experiments:
BALB/c mice = experiment: Skin irritation score, intradermal vs transdermal administration; assay type: in vivo
[1] = test system: OVA-specific IgG antibody; experiment: OVA-specific IgG antibody titer by ELISA; OVA intradermal plus adjuvant transdermal; assay type: in vivo, BALB/c mice; conditions: for Antibody titer (×10^4): OVA 10 ug/head intradermal, 25 uL adjuvant transdermal, dosing at 0, 2, 4 W, 5 W data; for antigen IgG immune response: intradermal ovalbumin plus transdermal adjuvant on intact skin
Procedure: OVA was dissolved in physiological saline and adjusted to give 10 ug/head, and for an OVA-only group 25 uL of the OVA aqueous solution was intradermally administered. For groups in which there was combined use with various types of adjuvant, immediately after the OVA solution was intradermally administered, 25 uL of the adjuvant solution was transdermally administered (coated) via the skin surface of the abdomen. Administration was carried out at 0, 2, and 4 W, blood was collected at 2, 4, and 5 W, and the OVA-specific IgG antibody titer after 2, 4, and 5 W was measured by ELISA.

MHC Class II molecules = experiment: Intensity of expression of MHC Class II molecules by lymph cells after transdermal adjuvant (flow cytometry, FIG. 1); assay type: in vivo, BALB/c mice; conditions: for lymph cell count: 50 uL of acetone solution (50%) on shaved abdomen, lymph node removed 5 days later
Procedure: On the other hand, for a group for which an antigen hapten was used in combination, 50 uL of a 1:1 mixture of an FITC solution (5 mg/mL in acetone) and a solution of the adjuvant was transdermally administered to the abdomen. 5 days later, lymph node (cervix, groin) was removed, and the intensity of expression of MHC Class II molecules by lymph cells was analyzed by flow cytometry (FIG. 1).

[2] = test system: OVA-specific IgG antibody; experiment: OVA-specific IgG antibody titer; microneedles coated with antigen emulsion (FIG. 5); assay type: in vivo, BALB/c mice; conditions: OVA 0.1 mg/patch; microneedles coated with emulsion 1:1:0.01 (Tween 80); punctured 2 hours
Procedure: Furthermore, for microneedle groups (OVA+lauryl alcohol or oleyl alcohol) microneedle needles were coated with an emulsion [antigen solution:olive oil or lauryl alcohol:surfactant (Tween 80)=1:1:0.01], and puncturing was carried out for 2 hours. Administering was carried out at 0, 2, and 4 W, blood was collected at 2, 4, and 5 W, and the OVA-specific IgG antibody titer was measured by ELISA.

OVA = experiment: Effect of LA adjuvant in administration via oral mucous membrane, antibody titer (FIG. 7); assay type: in vivo, BALB/c mice; conditions: OVA 2500 ug/head; antigen solution:LA:Tween 80 8:2:0.05 and 5:5:0.05; blood after 2 weeks
[3] = test system: OVA-specific IgG antibody; experiment: OVA-specific IgG antibody titer; microneedles coated with antigen emulsion (FIG. 4); assay type: in vivo, hairless rats; conditions: OVA 2 mg/patch; microneedles coated with emulsion antigen:oil or alcohol:Tween 80 1:1:0.01; punctured 2 hours
Procedure: OVA was adjusted to give 2 mg/patch, and for a microneedle group (OVA+5% polyvinyl alcohol), the abdomen of 7 to 8 W male hairless rats was punctured for 2 hours with a needle portion of microneedles coated with antigen and 5% polyvinyl alcohol liquid [mixed at antigen solution:10% polyvinyl alcohol=1:1]. Furthermore, for microneedle groups (OVA+olive oil) or (OVA+lauryl alcohol), microneedle needles were coated with an emulsion [antigen solution:olive oil or lauryl alcohol:surfactant (Tween 80)=1:1:0.01], and puncturing was carried out for 2 hours. Administration was carried out at 0, 2, and 4 W, blood was collected at 2, 4, and 5 W, and the OVA-specific IgG antibody titer was measured by ELISA.

[4] = test system: OVA-specific IgG antibody; experiment: OVA-specific IgG antibody titer; antigen-coated microneedles with LA applied in advance (FIG. 3); assay type: in vivo, hairless rats; conditions: OVA 2 mg/patch on coated microneedles, punctured 2 hours
Procedure: OVA was adjusted to give 2 mg/patch, a needle portion of microneedles was coated with the antigen and 5% polyvinyl alcohol liquid, and for a microneedle group the abdomen of 7 to 8 W male hairless rats was punctured for 2 hours with physiological saline dropped onto the skin side. For a microneedle+lauryl alcohol group, LA was applied in advance, physiological saline was dropped onto the skin side, and it was punctured for 2 hours with microneedle needles coated with the antigen and 5% polyvinyl alcohol liquid. Administration was carried out at 0, 2, and 4 W, blood was collected at 2, 4, and 5 W, and the OVA-specific IgG antibody titer was measured by ELISA.

[5] = test system: OVA-specific IgG antibody; experiment: OVA-specific IgG antibody titer; OVA/LA emulsion with microneedle, skin abrasion or iontophoresis (FIG. 2); assay type: in vivo, BALB/c mice; conditions: OVA 100 ug/head; OVA solution:LA:Tween 20 1:1:0.01; IP, MN, Skin Prep modes; 4 W data
Procedure: OVA (ovalbumin antigen) was adjusted to give 100 ug/head, for an OVA-only group an OVA aqueous solution was applied, and for a group in which lauryl alcohol (LA) was used in combination, an emulsified solution formed by mixing the OVA solution, LA and Tween 20 (emulsifier) at 1:1:0.01 was used. For the microneedle group, the pre-shaved abdomen skin was punctured with 1 cm^2 of microneedles (needle length about 200 um, 400 needles/cm^2), and immediately after this 50 uL of the above-mentioned emulsion solution was applied. For the skin abrasion treatment group, instead of the microneedles, the skin was abraded 5 times with 3M RED Dot™ 2236 and 50 uL of the emulsion solution was applied. For the iontophoresis group, after the shaven abdomen skin was coated with 50 uL of the emulsion solution, an iontophoresis preparation (nonwoven cloth preparation: Ag, Ag/AgCl 1 cm^2) formed by impregnating a nonwoven cloth with physiological saline was affixed to the coated site, and direct current (0.4 mA/patch) was applied for 1 hour. Administration was carried out at 0, 2, and 4 W, blood was collected at 2, 4, and 5 W, and the OVA-specific IgG antibody titer was measured by ELISA.

With `CC(C)CCCCCCCCCCCCCCCO` [Isostearyl alcohol, isostearyl alcohol] the “skin irritation on transdermal administration” value (“skin irritation” below) (BALB/c mice) was “did not cause skin irritation”, the “Antibody titer (×10^4)” value [1] was 1.3 ×10^4 and the lymph cell count (MHC Class II molecules) was “remarkable increase”.
`CCCCCCCCCCCCO` [Lauryl alcohol, lauryl alcohol] was tested, and the “skin irritation” value (BALB/c mice) was “did not cause skin irritation”, the “OVA-specific IgG antibody titer” value [2] was “increased remarkably” and the “antibody titer, oral mucous membrane administration” value (OVA) was “increased in response to the LA concentration”. For the same molecule, the “OVA-specific IgG antibody titer” value [3] was “increased remarkably”, the “OVA-specific IgG antibody titer” value [4] was “increased,remarkably” and the “Antibody titer (×10^4)” value [1] was 2.1 ×10^4. The “antigen IgG immune response” value [1] was “highest immune response”, the “OVA-specific IgG antibody titer” value [5] was “significant increase” and the lymph cell count (MHC Class II molecules) was “remarkable increase”. The “adjuvant effect in transdermal administration” value (MHC Class II molecules; comparison among adjuvants) was “most outstanding adjuvant effect”.
In the case of `CCCCCCCCCCC(CO)CCCCCCCC` (centres unmarked) [Octyldodecanol, octyldodecanol], the “skin irritation” value (BALB/c mice) is reported as “did not cause skin irritation” and the “Antibody titer (×10^4)” value [1] is reported as 0.6 ×10^4.
With `CCCCCCCC/C=C\CCCCCCCCO` [Oleyl alcohol, oleyl alcohol] the “skin irritation” value (BALB/c mice) was “did not cause skin irritation”, the “OVA-specific IgG antibody titer” value [2] was “increased remarkably” and the “Antibody titer (×10^4)” value [1] was 2.1 ×10^4. For the same molecule, the “antigen IgG immune response” value [1] was “highest immune response” and the lymph cell count (MHC Class II molecules) was “remarkable increase”.
In the case of `CCCCCCCC/C=C\CCCCCCCC(=O)O` [oleic acid], the lymph cell count (MHC Class II molecules) is reported as “remarkable increase”.
polyethylene glycol monolaurate was tested, and the “skin irritation” value (BALB/c mice) was “did not cause skin irritation” and the “Antibody titer (×10^4)” value [1] was 0.9 ×10^4.
For sorbitan monolaurate, the “skin irritation” value (BALB/c mice) was “did not cause skin irritation” and the lymph cell count (MHC Class II molecules) was “remarkable increase”.
sorbitan monooleate was tested, and the lymph cell count (MHC Class II molecules) was “remarkable increase”.
